The source of these data is paper PMC5503534, “Stable aneuploid tumors cells are more sensitive to TTK inhibition than chromosomally unstable cell lines” (Oncotarget, 2017).

SMILES strings stand for the structures. pIC50: −log10 of the molar value. Where two headings read alike, the source gives them in different places.

Experiment [1] deals with HCT 116 colon carcinoma cell line. The experiment is described as follows: Cell proliferation assay (ATPlite), HCT 116. To be noted: for Eff. (%): HCT 116, five days, maximum inhibitory effect, average of three experiments; for pIC50: Homo sapiens, 120 h, HCT 116 near-diploid, five days, geometric average of three experiments (Suppl. Table 2A). It counts as cell-based, human. As to the method: (§1) Cell proliferation assays were carried out as described using ATPlite 1step™ (Perkin Elmer, Groningen, The Netherlands). Exposure time was 72 or 120 hours as indicated in the Legends to the Figures. Percentage growth was calculated, relative to the growth of unexposed cells, and relative IC50s were fitted using a four-parameter logistics curve (XLfit 5.3, IDBS). For Figure 4A and 7 dose response curves were redrawn in Prism. To compare the inhibitory potency of compounds in proliferation assays with HCT 116 parental and tetraploid clones, pIC50 (−^10logIC50) values were compared in three independent experiments. A two-tailed Student's t-test was performed to determine whether differences in sensitivity (ΔpIC50) were statistically significant. Caspase 3/7 activity of cancer cells was measured using Caspase-Glo 3/7 Assay kit (cat no. G8093, Promega, Madison USA). Viability of T-ALL cell samples was determined using ATPlite and exposure of 72 hours as described previously.

Experiment [2] deals with post-tetraploid HPT1 cells. The experiment is described as follows: Cell proliferation assay, post-tetraploid HPT1. To be noted: HPT1, five days; for Efficacy (%): average of three experiments; for pIC50: Homo sapiens, 120 h, geometric average of three experiments. It counts as cell-based, human. How it is done:
(§2) Cancer cell lines and hTERT-RPE1 retinal pigment epithelial cells were purchased from the American Type Culture Collection (ATCC) (Manassas, VA, U.S.A.) from 2011 to 2014 [41] and cultured in ATCC-recommended media. All experiments were carried out within nine passages of the original vials from ATCC who authenticated the cancer cell lines by short tandem repeat analysis. We verified the mutant status of seven frequently mutated cancer genes (i.e., BRAF, CDKN2A, CTNNB1, EGFR, KRAS, PIK3CA and TP53) by full exome or targeted sequencing. Sequencing results were compared to COSMIC version 75 of the Genomics of Drug Sensitivity in Cancer data base and provided additional authentication of the identity of the cell lines. The isolation and characterization of post-tetraploid clones from HCT 116 has been described previously. The mutation status of the CDKN2A, CTNNB1, KRAS and PIK3CA genes were confirmed by sequence analysis in both the HCT 116 parental cell line and post-tetraploid clones. All experiments were carried out within nine passages of the original cell stocks that were transferred from the Max Planck Institute of Biochemistry (Martinsried, Germany) to Netherlands Translational Research Center.
as §1

The test system of experiment [3] is post-tetraploid HPT2 cells. The experiment is described as follows: Cell proliferation assay, post-tetraploid HPT2. In kind it is cell-based, human. To be noted: HPT2, five days; for Efficacy (%): average of three experiments; for pIC50: Homo sapiens, 120 h, geometric average of three experiments. How it is done:
as §2, §1

Experiment [4] concerns post-tetraploid HPT4 cells. The experiment can be described thus: Cell proliferation assay, post-tetraploid HPT4. It counts as cell-based, human. To be noted: HPT4, five days; for Efficacy (%): average of three experiments; for pIC50: Homo sapiens, 120 h, geometric average of three experiments. As to the method:
as §2, §1

For experiment [5], the system named is HCT 116 vs HPT1, -2 and -4. The experiment can be described thus: Drug sensitivity analysis, HCT116 diploid versus tetraploids. It counts as cell-based, human. To be noted: for Δeff. (%) / Phenotype (potency): HCT 116 vs HPT1, -2 and -4; for Phenotype (efficacy): HCT 116 vs HPT1, -2 and -4, based on % effect; for Phenotype (potency): 'resistant' indicates that tetraploids are resistant; for ΔpIC50: average log shift in sensitivity between parental and tetraploids. As to the method:
as §1

Experiment [6] has as its system HCT 116 colon carcinoma cell line. The settings on record: three day cell proliferation assay; cited from earlier work.
Experiment [7] concerns LoVo colorectal adenocarcinoma cell line. The settings on record: three day cell proliferation assay; cited from earlier work.
Experiment [8] has as its system A-172 glioblastoma cell line. To be noted: three day cell proliferation assay; cited from earlier work.
Experiment [9] deals with DoTc2 4510 cervix carcinoma cell line. The settings on record: three day cell proliferation assay; cited from earlier work.
Experiment [10] relates to MG-63 osteosarcoma cell line. The settings on record: three day cell proliferation assay; cited from earlier work.
The test system of experiment [11] is OVCAR-3 ovary adenocarcinoma cell line. The settings on record: three day cell proliferation assay; cited from earlier work.
Experiment [12] has as its system pediatric T-ALL patient cell samples. The experiment is described as follows: Viability assays with T-ALL patient samples. In kind it is cell-based, human. To be noted: Homo sapiens, 72 h. As to the method: Written informed consent was obtained from the parents or legal guardians of each T-ALL patient to use excess diagnostic material for research purposes. The study was performed in accordance with the Institutional Review Board of the Erasmus Medical Center Rotterdam (The Netherlands) and in accordance with the Declaration of Helsinki. Leukemic cells were harvested from blood or bone marrow samples and were enriched to ≥ 90% purity.
as §1

Consider `CCn1cc(-c2ccnc3[nH]c(-c4cccc(CN(C)C)c4)cc23)c(-c2ccc(NC(=O)N(C)C)cc2)n1` [GSK-1070916], for which, in [1], the “Eff. (%)” value is listed as 61% and the pIC50 – broadly, the negative decadic logarithm of the IC50, by convention in mol/L – was 7.85. Also, in experiment [2], the “Efficacy (%)” value turned out to be 32% and the negative logarithm of the IC50 (pIC50) was 7.80. Also, in [3], the “Efficacy (%)” value stood at 100% and the pIC50 is 5.77. Further, in experiment [4], the “Efficacy (%)” value was 100% and the pIC50 was 5.77. In experiment [5], the “Δeff. (%)” value was 16%, the “Phenotype (efficacy)” value is “sensitive”, the “Phenotype (potency)” value is “resistant” and the ΔpIC50 is 1.41.

Regarding `O=C(O)c1ccc(Nc2ncc3c(n2)-c2ccc(Cl)cc2C(c2c(F)cccc2F)=NC3)cc1` [MLN-8054], in experiment [1], the “Eff. (%)” value is reported as 85% and the negative logarithm of the IC50 (pIC50) is 6.15. In experiment [2], the “Efficacy (%)” value worked out at 61% and the pIC50 is 5.88. Besides, in experiment [3], the “Efficacy (%)” value was 52% and the pIC50 was 5.81. In experiment [4], the “Efficacy (%)” value worked out at 56% and the pIC50 was 5.92. Moreover, in experiment [5], the “Δeff. (%)” value is given as −28%, the “Phenotype (efficacy)” value is reported as “resistant”, the “Phenotype (potency)” value was “resistant” and the ΔpIC50 was determined as 0.28.

Consider `N[C@@H](CSC(c1ccccc1)(c1ccccc1)c1ccccc1)C(=O)O` [STLC, S-trityl-L-cysteine], for which the “Eff. (%)” value in experiment [1] is 99%. In addition, in [2], the “Efficacy (%)” value is 90% and the pIC50 is 5.69. Also, in experiment [3], the “Efficacy (%)” value is on record as 93% and the pIC50 was 5.87. In experiment [4], the “Efficacy (%)” value was found to be 95% and the pIC50 is 5.85. In [5], the “Δeff. (%)” value was −6%, the “Phenotype (efficacy)” value was “resistant”, the “Phenotype (potency)” value is listed as “resistant” and the ΔpIC50 is 0.34.

For the compound `CC[C@@H]1C(=O)N(C)c2cnc(Nc3ccc(C(=O)N[C@H]4CC[C@H](N5CCN(CC6CC6)CC5)CC4)cc3OC)nc2N1C(C)C` [volasertib], in experiment [1], the “Eff. (%)” value is on record as 98% and the pIC50 is 7.60. In addition, in [2], the “Efficacy (%)” value is 82% and the pIC50 is 7.59. Further, in [3], the “Efficacy (%)” value was found to be 65% and the pIC50 is 7.35. For the same compound, in experiment [4], the “Efficacy (%)” value is 84% and the pIC50 is 7.31. Also, in experiment [5], the “Δeff. (%)” value is reported as −21%, the “Phenotype (efficacy)” value is “resistant”, the “Phenotype (potency)” value is recorded as “resistant” and the ΔpIC50 is reported as 0.19.

For `CC(=O)O[C@H]1C(=O)[C@@]2(C)[C@H]([C@H](OC(=O)c3ccccc3)[C@]3(O)C[C@H](OC(=O)[C@H](O)[C@@H](NC(=O)c4ccccc4)c4ccccc4)C(C)=C1C3(C)C)[C@]1(OC(C)=O)CO[C@@H]1C[C@@H]2O` [paclitaxel], the pIC50 in experiment [6] was 8.30; in [7], 7.64; in experiment [8], 7.77; in experiment [9], 8.00; in [10], 8.22; in experiment [11], 7.59.

Turning to `COc1cccc2c1C(=O)c1c(O)c3c(c(O)c1C2=O)C[C@@](O)(C(C)=O)C[C@@H]3O[C@H]1C[C@H](N)[C@H](O)[C@H](C)O1` [daunorubicin], the pIC50 in experiment [12] (all ten T-ALL patient samples, three days) is > 7.00; in experiment [12] (patient sample 491, three-day assay) it was 7.10; in [12] (patient sample 1033, three-day assay) it was 7.37; in [12] (patient sample 1816, three-day assay), 7.42; in experiment [12] (patient sample 2323, three-day assay), 7.10; in experiment [12] (patient sample 3594, three-day assay), 7.37. Moreover, the pIC50 in experiment [12] (patient sample 3852, three-day assay) is 7.21; in [12] (patient sample 4023, three-day assay), 7.24; in experiment [12] (patient sample 4126, three-day assay) it was 7.15; in [12] (patient sample 4992, three-day assay) it was 7.39; in [12] (patient sample 10110, three-day assay), 7.38.

Regarding `N.N.[Cl][Pt][Cl]` [cisplatin], the pIC50 in experiment [6] is 5.21; in experiment [7] it was 5.17; in experiment [8], 4.80; in experiment [9], 5.13; in [10], 5.35; in experiment [11], 4.95.

Take `CC(C)C[C@H](NC(=O)[C@H](Cc1ccccc1)NC(=O)c1cnccn1)B(O)O` [bortezomib]: the pIC50 in [12] (all ten T-ALL patient samples, three days, read-out: IC50) was > 8.00; in experiment [12] (patient sample 491, three-day assay, read-out: IC50), 8.52; in experiment [12] (patient sample 1033, three-day assay, read-out: IC50), 8.52; in experiment [12] (patient sample 1816, three-day assay, read-out: IC50) it was 8.70; in experiment [12] (patient sample 2323, three-day assay, read-out: IC50), 8.52; in experiment [12] (patient sample 3594, three-day assay, read-out: IC50), 8.40. Further, the pIC50 in experiment [12] (patient sample 3852, three-day assay, read-out: IC50) was 8.40; in experiment [12] (patient sample 4023, three-day assay, read-out: IC50), 8.52; in [12] (patient sample 4126, three-day assay, read-out: IC50), 8.52; in experiment [12] (patient sample 4992, three-day assay, read-out: IC50), 8.52; in [12] (patient sample 10110, three-day assay, read-out: IC50) it was 8.52.

Turning to `COc1cccc2c1C(=O)c1c(O)c3c(c(O)c1C2=O)C[C@@](O)(C(=O)CO)C[C@@H]3O[C@H]1C[C@H](N)[C@H](O)[C@H](C)O1` [doxorubicin], in [1], the “Eff. (%)” value amounted to 97% and the pIC50 is 7.51. Also, in [2], the “Efficacy (%)” value is 99% and the pIC50 is 7.16. Further, in experiment [3], the “Efficacy (%)” value amounted to 100% and the pIC50 is 6.89. Further, in [4], the “Efficacy (%)” value was determined as 100% and the negative-log IC50 (pIC50) is 7.08. Moreover, in experiment [5], the “Δeff. (%)” value is on record as 3%, the “Phenotype (efficacy)” value was “sensitive”, the “Phenotype (potency)” value is “resistant” and the ΔpIC50 was 0.46.

Take `CN(C)/N=N/c1[nH]cnc1C(N)=O` [dacarbazine]: the pIC50 was 4.73 in experiment [6]; 5.28 in [7]; 4.50 in experiment [8]; 5.51 in experiment [9]; 4.80 in experiment [10]; 4.86 in experiment [11].
